From PMC10837484 (Clinical and Translational Science, 2024)

Legend:
LTA4H [1] = details: cited from earlier work
LTA4H [2] = target: T1, LTA4H (Homo sapiens, UniProt P09960); details: cited from earlier work
T1 sequence (P09960 1-611): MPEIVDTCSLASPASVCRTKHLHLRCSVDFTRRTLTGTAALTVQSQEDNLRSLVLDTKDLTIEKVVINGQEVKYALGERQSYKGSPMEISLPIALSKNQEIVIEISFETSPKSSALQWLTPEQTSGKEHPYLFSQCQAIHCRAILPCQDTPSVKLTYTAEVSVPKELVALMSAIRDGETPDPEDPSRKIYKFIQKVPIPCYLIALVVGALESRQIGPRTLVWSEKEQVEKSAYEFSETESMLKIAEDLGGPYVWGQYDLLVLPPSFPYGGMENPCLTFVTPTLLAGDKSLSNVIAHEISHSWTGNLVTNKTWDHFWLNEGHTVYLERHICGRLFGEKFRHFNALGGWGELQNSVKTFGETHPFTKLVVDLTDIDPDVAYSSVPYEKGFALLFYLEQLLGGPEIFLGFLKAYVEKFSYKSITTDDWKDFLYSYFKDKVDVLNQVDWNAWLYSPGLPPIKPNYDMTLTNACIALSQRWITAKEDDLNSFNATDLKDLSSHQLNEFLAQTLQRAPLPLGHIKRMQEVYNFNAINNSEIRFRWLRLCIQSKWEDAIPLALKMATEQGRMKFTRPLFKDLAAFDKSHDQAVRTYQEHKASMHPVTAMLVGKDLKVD

LTA4H [3] = target: T1, LTA4H; details: patients with asthma; cited from earlier work
[4] = First-in-human study: LYS006 concentrations in plasma and blood; type: in vivo; details: for concentration at 24 h: blood level, 24 h timepoint
in vivo = details: male, Wistar, rat, 3 mg/kg
[5] = First-in-human study: safety and tolerability; type: in vivo
[6] = cited from earlier work
[7] = Dog PK/PD study: LYS006 in blood and plasma; type: in vivo, male beagle dogs
[8] = cited from earlier work; remark: listed apart in the source
[9] = SAD part, LYS006 treated participants
[10] = 0.5 mg/kg p.o. q.d., after fifth dose

For `O=C(O)CCCN1CCC[C@H]1COc1ccc(Oc2ccc(Cl)cc2)cc1` [DG‐051], the “in vitro potency relative to other clinical LTA4H inhibitors” value (LTA4H [1]) is given as “lowest potency” and the “LTB4 reduction in ex vivo stimulated blood” value (LTA4H [2]; after 7 days of once daily treatment) is given as “up to 70%”.

For `CC(=O)NC1C[C@H]2CC[C@@H](C1)N2Cc1ccc(Oc2nc3ncccc3s2)cc1` (stereo partly shown) [JNJ‐40929837], the “potency in in vitro cellular assays” value (LTA4H [1]) is listed as “highly potent”, the “reduction in sputum LTB4” value (LTA4H [3]) is listed as 92% and the “reduction of LTB4 levels” value (LTA4H [2]; over a 24 h period at doses of 100 mg) is listed as “greater than 95%”.

With `N[C@@H](CC(=O)O)Cn1nnc(-c2ccc(Oc3ncc(Cl)cc3F)cc2)n1` [LYS006] the trough blood level ([4]; MAD, 15 mg q.d.) was ~ 35 ng/mL, the trough plasma level ([4]; MAD, 15 mg q.d.) was ~ 2 ng/mL and the “blood exposure after end-of-treatment” value ([4]; MAD, after last dose on day 12) was 30 to 40 ng/mL. The “plasma level after end-of-treatment” value ([4]; MAD, after last dose on day 12) was 1 to 2 ng/mL, the concentration at 24 h ([4]; both, human, in vivo, 5 mg, SAD) was 29.4 ng/mL and the concentration at 24 h ([4]; both, human, in vivo, 70 mg, SAD) was 37.1 ng/mL. For the same molecule, the concentration at 12 h ([4]; both, human, in vivo, blood concentration, SAD, 12 h after administration) was 30 to 50 ng/mL, the concentration at 4 h (in vivo) was greater than 1000 ng/mL and the “AE severity: Mild” value ([5]; FE cohorts, 10 mg, N = 12) was 8 (66.6) n (%). For the same molecule, the “AE severity: Moderate” value ([5]; FE cohorts, 10 mg, N = 12) was 0 (0) n (%), the “AE severity: Severe” value ([5]; FE cohorts, 10 mg, N = 12) was 0 (0) n (%) and the “AEs leading to discontinuation” value ([5]; FE cohorts, 10 mg, N = 12) was 0 (0) n (%). For the same molecule, the “Abdominal discomfort or pain” value ([5]; FE cohorts, 10 mg, N = 12) was 2 (16.7) n (%), the Amylase increase ([5]; FE cohorts, 10 mg, N = 12) was 0 (0) n (%) and the Back pain ([5]; FE cohorts, 10 mg, N = 12) was 0 (0) n (%). The “Blood CPK elevation” value ([5]; FE cohorts, 10 mg, N = 12) was 0 (0) n (%), the Breast pain ([5]; FE cohorts, 10 mg, N = 12) was 0 (0) n (%) and the Deaths ([5]; FE cohorts, 10 mg, N = 12) was 0 (0) n (%). For the same molecule, the Diarrhea ([5]; FE cohorts, 10 mg, N = 12) was 0 (0) n (%), the Dizziness ([5]; FE cohorts, 10 mg, N = 12) was 0 (0) n (%) and the Dry skin ([5]; FE cohorts, 10 mg, N = 12) was 2 (16.7) n (%). For the same molecule, the Feeling cold ([5]; FE cohorts, 10 mg, N = 12) was 2 (16.7) n (%), the Headache ([5]; FE cohorts, 10 mg, N = 12) was 1 (8.3) n (%) and the Lipase elevation ([5]; FE cohorts, 10 mg, N = 12) was 0 (0) n (%). For the same molecule, the Nausea ([5]; FE cohorts, 10 mg, N = 12) was 0 (0) n (%), the Pruritus ([5]; FE cohorts, 10 mg, N = 12) was 0 (0) n (%) and the SAEs ([5]; FE cohorts, 10 mg, N = 12) was 0 (0) n (%). For the same molecule, the “Study drug-related AEs” value ([5]; FE cohorts, 10 mg, N = 12) was 0 (0) n (%), the Viral respiratory infection ([5]; FE cohorts, 10 mg, N = 12) was 3 (25) n (%) and the Feeling cold ([5]; FE part, 10 mg) was 16.7%. The abdominal pain ([5]; FE part, 10 mg) was 16.7%, the dry skin ([5]; FE part, 10 mg) was 16.7% and the “viral upper respiratory tract infection” value ([5]; FE part, 10 mg) was 25.0%. For the same molecule, the “participants with at least one AE” value ([5]; FE part, 10 mg fasted or fed, 12 patients) was 66.7%, the “AE severity: Mild” value ([5]; MAD cohorts, all doses, N = 30) was 22 (73.3) n (%) and the “AE severity: Moderate” value ([5]; MAD cohorts, all doses, N = 30) was 4 (13.3) n (%). The “AE severity: Severe” value ([5]; MAD cohorts, all doses, N = 30) was 4 (13.3) n (%), the “AEs leading to discontinuation” value ([5]; MAD cohorts, all doses, N = 30) was 0 (0) n (%) and the “Abdominal discomfort or pain” value ([5]; MAD cohorts, all doses, N = 30) was 2 (6.7) n (%). For the same molecule, the Amylase increase ([5]; MAD cohorts, all doses, N = 30) was 2 (6.7) n (%), the Back pain ([5]; MAD cohorts, all doses, N = 30) was 2 (6.7) n (%) and the “Blood CPK elevation” value ([5]; MAD cohorts, all doses, N = 30) was 5 (16.7) n (%). For the same molecule, the Breast pain ([5]; MAD cohorts, all doses, N = 30) was 0 (0) n (%), the Deaths ([5]; MAD cohorts, all doses, N = 30) was 0 (0) n (%) and the Diarrhea ([5]; MAD cohorts, all doses, N = 30) was 1 (3.3) n (%). The Dizziness ([5]; MAD cohorts, all doses, N = 30) was 2 (6.7) n (%), the Dry skin ([5]; MAD cohorts, all doses, N = 30) was 0 (0) n (%) and the Feeling cold ([5]; MAD cohorts, all doses, N = 30) was 0 (0) n (%). The Headache ([5]; MAD cohorts, all doses, N = 30) was 8 (26.7) n (%), the Lipase elevation ([5]; MAD cohorts, all doses, N = 30) was 3 (10) n (%) and the Nausea ([5]; MAD cohorts, all doses, N = 30) was 2 (6.7) n (%). For the same molecule, the Pruritus ([5]; MAD cohorts, all doses, N = 30) was 0 (0) n (%), the SAEs ([5]; MAD cohorts, all doses, N = 30) was 0 (0) n (%) and the “Study drug-related AEs” value ([5]; MAD cohorts, all doses, N = 30) was 5 (16.7) n (%). For the same molecule, the “Subjects with at least one AE” value ([5]; MAD cohorts, all doses, N = 30) was 23 (76.7) n (%), the Viral respiratory infection ([5]; MAD cohorts, all doses, N = 30) was 2 (6.7) n (%) and the “participants with AEs” value ([5]; MAD part, 30 LYS006-treated participants) was 76.7%. For the same molecule, the “AEs of severe intensity (grade 3)” value ([5]; MAD part, LYS006-treated participants) was 13.3%, the Headache ([5]; MAD part, LYS006 group) was 26.7% and the Lipase elevation ([5]; MAD part, LYS006 group) was 10%. For the same molecule, the “creatine phosphokinase (CPK) elevation” value ([5]; MAD part, LYS006 group) was 16.7%, the “number of AEs of severe intensity related to CPK elevations” value ([5]; MAD, LYS006 group, transient) was “two” and the “number of lipase elevations of severe intensity (grade 3)” value ([5]; MAD, LYS006 group, transient) was “Two”. For the same molecule, the “AE severity: Mild” value ([5]; SAD cohorts, all doses, N = 51) was 18 (35.3) n (%), the “AE severity: Moderate” value ([5]; SAD cohorts, all doses, N = 51) was 2 (3.9) n (%) and the “AE severity: Severe” value ([5]; SAD cohorts, all doses, N = 51) was 1 (2) n (%). The “AEs leading to discontinuation” value ([5]; SAD cohorts, all doses, N = 51) was 0 (0) n (%), the “Abdominal discomfort or pain” value ([5]; SAD cohorts, all doses, N = 51) was 4 (7.8) n (%) and the Amylase increase ([5]; SAD cohorts, all doses, N = 51) was 0 (0) n (%). The Back pain ([5]; SAD cohorts, all doses, N = 51) was 1 (2) n (%), the “Blood CPK elevation” value ([5]; SAD cohorts, all doses, N = 51) was 0 (0) n (%) and the Breast pain ([5]; SAD cohorts, all doses, N = 51) was 0 (0) n (%). For the same molecule, the Deaths ([5]; SAD cohorts, all doses, N = 51) was 0 (0) n (%), the Diarrhea ([5]; SAD cohorts, all doses, N = 51) was 2 (3.9) n (%) and the Dizziness ([5]; SAD cohorts, all doses, N = 51) was 1 (2) n (%). For the same molecule, the Dry skin ([5]; SAD cohorts, all doses, N = 51) was 0 (0) n (%), the Feeling cold ([5]; SAD cohorts, all doses, N = 51) was 0 (0) n (%) and the Headache ([5]; SAD cohorts, all doses, N = 51) was 3 (5.9) n (%). For the same molecule, the Lipase elevation ([5]; SAD cohorts, all doses, N = 51) was 2 (3.9) n (%), the Nausea ([5]; SAD cohorts, all doses, N = 51) was 0 (0) n (%) and the Pruritus ([5]; SAD cohorts, all doses, N = 51) was 2 (3.9) n (%). The SAEs ([5]; SAD cohorts, all doses, N = 51) was 0 (0) n (%), the “Study drug-related AEs” value ([5]; SAD cohorts, all doses, N = 51) was 4 (7.8) n (%) and the “Subjects with at least one AE” value ([5]; SAD cohorts, all doses, N = 51) was 19 (37.3) n (%). For the same molecule, the Viral respiratory infection ([5]; SAD cohorts, all doses, N = 51) was 0 (0) n (%), the “participants with AEs” value ([5]; SAD part, 51 LYS006 treated participants) was 37.3% and the “Abdominal discomfort or pain” value [5, 9] was 7.8%. The Diarrhea [5, 9] was 3.9%, the Headache [5, 9] was 5.9% and the tolerability ([5]; SAD, FE and MAD parts, all study participants) was “well‐tolerated”. The dose-limiting toxicity ([5]; healthy participants, up to 80 mg b.i.d.) was “No dose‐limiting toxicity”, the “lipase increase, only AE of severe intensity (grade 3) in SAD” value ([5]; one participant, single dose 5 mg, day 8 after dosing, no clinical sign) was no less than 2 × ULN and the “time to maximum plasma concentration (Tmax)” value ([6]; clinical PK) was 1 to 2 h. For the same molecule, the “parent compound excreted into the urine” value ([6]; human) was 90%, the peak blood concentration [7, 10] was 55 ng/mL and the peak plasma concentration [7, 10] was 5.5 ng/mL. For the same molecule, the peak blood level ([7]; 3 mg/kg p.o., first dose, 1 h) was 71 ng/mL, the peak plasma level ([7]; 3 mg/kg p.o., first dose, 1 h) was 36 ng/mL and the concentration at 24 h ([7]; male, beagle, in vivo, po, 0.5 mg/kg, plasma Ctrough, 0.5 mg/kg p.o., first dose) was roughly 3 ng/mL.

In the case of `O=C(O)c1ccc(CN2C[C@@H]3C[C@H]2CN3Cc2ccc(Oc3ccc(-c4ncco4)cc3)cc2)cc1` [acebilustat], the “maximum PD effect, reduction of LTB4 at peak in ex vivo stimulated blood” value (LTA4H [2]; highest tested dose 200 mg q.d.) is listed as 89%.

For `CC(c1cc2ccccc2s1)N(O)C(N)=O` (stereo not shown) [zileuton], the “effect on liver transaminases” value [8] is given as “elevates liver transaminases”.
